Measured values from patent US20240299336A1, “SHELF-STABLE FORMULATIONS OF BENZOYL PEROXIDE AND METHODS OF PRODUCING SAME” (BLUE HILL TECHNOLOGIES LLC, priority 2022, published 2024).

Tests used:
Format in all cases: physicochemical
[1] = Effect of solvents on benzene levels in 10% w/v benzoyl peroxide formulations; details: 10% benzoyl peroxide, 37° C. for 10 days, compared to formulations containing glycerol or NMP
Procedure: (§1) The method USP <467> Residual Solvents Procedure A was modified from flame ionization detection (FID) to mass spectrometry (MS) detection for benzene in benzoyl peroxide products. The gas chromatography (GC) methods were also modified to allow shorter run time and the method was validated for addition of up to 500 mg benzoyl peroxide product or 200 ml glycerol. Identification of benzene was based on the retention time matching to certified reference standards and mass spectral m/z matching to benzene.
(§2) 10% w/v benzoyl peroxide formulations were prepared. Various solvents were added to the formulations (water, dimethylsulfoxide (DMSO), glycerol. N-methyl-2-pyrrolidone (NMP)) to test whether these solvents could prevent or reduce formation of benzene under certain conditions. The various formulations were incubated at either 37° C., for up to two weeks or at 50° C., for up to two weeks. Benzene levels in each formulation were tested at various time points according to the protocols described in Example 1.

[2] = Effect of antioxidants added to FDA-approved benzoyl peroxide drug products on benzene levels; details: antioxidant added to drug product, 50° C. for 2 days
Procedure: as §1

[3] = Effect of antioxidants on benzene levels in 10% w/v benzoyl peroxide formulations; details: 10% w/v benzoyl peroxide plus antioxidant
Procedure: For benzoyl peroxide stability studies in glycerol, benzoyl peroxide was prepared in a stock suspension of 20% w/v in glycerol and mixed 1:1 with 20% w/v suspensions or v/v solutions of antioxidants in glycerol. For pH experiments, the same stock suspension of benzoyl peroxide was mixed 1:1 with a 50% glycerol solution with 200 mM buffering agent (Citrate buffer pH 3.0, Tris Buffer pH 7.0, or Tris Buffer pH 9.0) for final 75% glycerol solution. The final volume of all reactions was 100 μL in GC headspace vials with 10% solution benzoyl peroxide (10 mg) and 10% antioxidant or 100 mM buffering agent. Vials were immediately crimp sealed for incubation. For analysis, 4.9 mL of DMSO was added to make up the final volume to approximate 5 mL, crimp sealed, and gently vortexed to mix.
Benzene standard was diluted in DMSO for an 11-point calibration ranging from 10 ng/vial to 100 μg/vial. The coefficient of determination R^2 were greater than 0.999. Five (5) mL of DMSO was used for negative control samples.
as §1, with “benzene. Lower limit of detection (LLOD) was 10 ng (equivalent to 0.02 ppm in hand benzoyl peroxide products) and LLOQ was 25 μg. The measurement uncertainty was determined to be 20%.” for “benzene.”
as §2, with “antioxidants” for “solvents”, “(10% w/v butylated hydroxytoluene (BHT), 10% w/v vitamin E acetate, or 5% w/v tert-butyl hydroquinone (TBHQ)+5% w/v BHT)” for “(water, dimethylsulfoxide (DMSO), glycerol. N-methyl-2-pyrrolidone (NMP))”

[4] = Benzene levels formed by crystalline benzoyl peroxide incubated at 50° C.; details: 50° C. for up to 12 days
Procedure: as §1

Row | levels of benzene formed in the formulations ([3]; 37° C. for up to two weeks) | levels of benzene formed in the formulations ([3]; 50° C. for up to two weeks) | SMILES | levels of benzene formed in the formulations [1] | levels of benzene formed in two FDA-approved drug products with antioxidant [2] | further results
1 | – | – | C[S+](C)[O-] [DMSO, dimethylsulfoxide] | most dramatic reduction in, or complete prevention of, benzene levels | – | –
2 | most dramatic reduction | most dramatic reduction | Cc1cc(C(C)(C)C)c(O)c(C(C)(C)C)c1 [BHT, butylated hydroxytoluene] | – | reduce the degradation of benzoyl peroxide to benzene | –
3 | – | – | CC(C)(C)c1cc(O)ccc1O [TBHQ, tert-butyl hydroquinone] | – | reduce the degradation of benzoyl peroxide to benzene | –
4 | reduced the levels of benzene | reduced the levels of benzene | CC(=O)Oc1c(C)c(C)c2c(c1C)CCC(C)(CCC[C@H](C)CCC[C@H](C)CCCC(C)C)O2 (stereo partly drawn) [vitamin E acetate] | – | – | –
5 | – | – | O=C(OOC(=O)c1ccccc1)c1ccccc1 [crystalline benzoyl peroxide, benzoyl peroxide] | – | – | levels of benzene formed [4]: may be protected from forming benzene levels
6 | – | – | O [water] | most dramatic reduction in, or complete prevention of, benzene levels | – | –
